#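 Exposure lasted 48 hours, with cells grown in 96-well plates and compounds tested at five concentrations. The concentration for full growth arrest is given as TGI.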
# How the values were obtained:
# Assay in all cases: NCI-60 cell line screen, 48 h
# SR leukemia = test system: SR leukemia
# SN12C renal = test system: SN12C renal
# LXFL 529 NSCLC = test system: LXFL 529 NSCLC
# NCI-H460 lung = test system: NCI-H460 lung
# NCI-H23 lung = test system: NCI-H23 lung
# ACHN renal = test system: ACHN renal
# IGROV1 ovarian = test system: IGROV1 ovarian
# OVCAR-5 ovarian = test system: OVCAR-5 ovarian
# CCRF-CEM leukemia = test system: CCRF-CEM leukemia
# SNB-75 CNS = test system: SNB-75 CNS
# HL-60(TB) leukemia = test system: HL-60(TB) leukemia
# SK-MEL-5 melanoma = test system: SK-MEL-5 melanoma
# MALME-3M melanoma = test system: MALME-3M melanoma
# LOX IMVI melanoma = test system: LOX IMVI melanoma
# UACC-257 melanoma = test system: UACC-257 melanoma
# K-562 leukemia = test system: K-562 leukemia
# A549 NSCLC = test system: A549 NSCLC
# 786-0 renal = test system: 786-0 renal
# HOP-18 NSCLC = test system: HOP-18 NSCLC
# A498 renal = test system: A498 renal
# M19-MEL melanoma = test system: M19-MEL melanoma
# RPMI-8226 leukemia = test system: RPMI-8226 leukemia
# OVCAR-4 ovarian = test system: OVCAR-4 ovarian
# NCI-H522 lung = test system: NCI-H522 lung
# U251 CNS = test system: U251 CNS
# SK-OV-3 ovarian = test system: SK-OV-3 ovarian
# MOLT-4 leukemia = test system: MOLT-4 leukemia
# SK-MEL-28 melanoma = test system: SK-MEL-28 melanoma
# SF-295 CNS = test system: SF-295 CNS
# DMS 114 small cell lung = test system: DMS 114 small cell lung
# RXF 393 renal = test system: RXF 393 renal
# NCI-H226 lung = test system: NCI-H226 lung
# TK-10 renal = test system: TK-10 renal
# HOP-92 NSCLC = test system: HOP-92 NSCLC
# HT29 colon = test system: HT29 colon
# SF-268 CNS = test system: SF-268 CNS
# DLD-1 colon = test system: DLD-1 colon
# COLO 205 colon = test system: COLO 205 colon
# UO-31 renal = test system: UO-31 renal
# KM12 colon = test system: KM12 colon
# DMS 273 small cell lung = test system: DMS 273 small cell lung
# HCT-116 colon = test system: HCT-116 colon
# SW-620 colon = test system: SW-620 colon
# UACC-62 melanoma = test system: UACC-62 melanoma
# SK-MEL-2 melanoma = test system: SK-MEL-2 melanoma
# HOP-62 NSCLC = test system: HOP-62 NSCLC
# SF-539 CNS = test system: SF-539 CNS
# CAKI-1 renal = test system: CAKI-1 renal
# OVCAR-8 ovarian = test system: OVCAR-8 ovarian
# HCT-15 colon = test system: HCT-15 colon
# M14 melanoma = test system: M14 melanoma
# OVCAR-3 ovarian = test system: OVCAR-3 ovarian
# KM20L2 colon = test system: KM20L2 colon
# HCC-2998 colon = test system: HCC-2998 colon
# SNB-78 CNS = test system: SNB-78 CNS
# EKVX NSCLC = test system: EKVX NSCLC
# SNB-19 CNS = test system: SNB-19 CNS
# RXF-631 renal = test system: RXF-631 renal
smiles,measurement,setting,value
COc1ccc(C2S/C(=C\c3cccc([N+](=O)[O-])c3)C(=O)N2NC(=O)Cc2ccccc2)cc1 (stereo not drawn),TGI,SR leukemia,> 100 µM
same,TGI,SN12C renal,> 100 µM
same,TGI,LXFL 529 NSCLC,> 100 µM
same,TGI,NCI-H460 lung,> 100 µM
same,TGI,NCI-H23 lung,> 100 µM
same,TGI,ACHN renal,> 100 µM
same,TGI,IGROV1 ovarian,> 100 µM
same,TGI,OVCAR-5 ovarian,> 100 µM
same,TGI,CCRF-CEM leukemia,> 100 µM
same,TGI,SNB-75 CNS,> 100 µM
same,TGI,HL-60(TB) leukemia,> 100 µM
same,TGI,SK-MEL-5 melanoma,> 100 µM
same,TGI,MALME-3M melanoma,> 100 µM
same,TGI,LOX IMVI melanoma,> 100 µM
same,TGI,UACC-257 melanoma,> 100 µM
same,TGI,K-562 leukemia,> 100 µM
same,TGI,A549 NSCLC,> 100 µM
same,TGI,786-0 renal,> 100 µM
same,TGI,HOP-18 NSCLC,> 100 µM
same,TGI,A498 renal,> 100 µM
same,TGI,M19-MEL melanoma,> 100 µM
same,TGI,RPMI-8226 leukemia,> 100 µM
same,TGI,OVCAR-4 ovarian,> 100 µM
same,TGI,NCI-H522 lung,> 100 µM
same,TGI,U251 CNS,> 100 µM
same,TGI,SK-OV-3 ovarian,> 100 µM
same,TGI,MOLT-4 leukemia,> 100 µM
same,TGI,SK-MEL-28 melanoma,> 100 µM
same,TGI,SF-295 CNS,> 100 µM
same,TGI,DMS 114 small cell lung,> 100 µM
same,TGI,RXF 393 renal,> 100 µM
same,TGI,NCI-H226 lung,> 100 µM
same,TGI,TK-10 renal,> 100 µM
same,TGI,HOP-92 NSCLC,> 100 µM
same,TGI,HT29 colon,> 100 µM
same,TGI,SF-268 CNS,> 100 µM
same,TGI,DLD-1 colon,> 100 µM
same,TGI,COLO 205 colon,> 100 µM
same,TGI,UO-31 renal,> 100 µM
same,TGI,KM12 colon,> 100 µM
same,TGI,DMS 273 small cell lung,> 100 µM
same,TGI,HCT-116 colon,> 100 µM
same,TGI,SW-620 colon,> 100 µM
same,TGI,UACC-62 melanoma,> 100 µM
same,TGI,SK-MEL-2 melanoma,> 100 µM
same,TGI,HOP-62 NSCLC,> 100 µM
same,TGI,SF-539 CNS,> 100 µM
same,TGI,CAKI-1 renal,> 100 µM
same,TGI,OVCAR-8 ovarian,> 100 µM
same,TGI,HCT-15 colon,> 100 µM
same,TGI,M14 melanoma,> 100 µM
CC(C)(C)C1CCN(C(=O)c2ccccc2)CC1,TGI,SR leukemia,> 100 µM
same,TGI,SN12C renal,> 100 µM
same,TGI,LXFL 529 NSCLC,> 100 µM
same,TGI,NCI-H460 lung,> 100 µM
same,TGI,NCI-H23 lung,> 100 µM
same,TGI,ACHN renal,> 100 µM
same,TGI,IGROV1 ovarian,> 100 µM
same,TGI,OVCAR-5 ovarian,> 100 µM
same,TGI,CCRF-CEM leukemia,> 100 µM
same,TGI,SNB-75 CNS,> 100 µM
same,TGI,HL-60(TB) leukemia,> 100 µM
same,TGI,SK-MEL-5 melanoma,> 100 µM
same,TGI,MALME-3M melanoma,> 100 µM
same,TGI,LOX IMVI melanoma,> 100 µM
same,TGI,UACC-257 melanoma,> 100 µM
same,TGI,K-562 leukemia,> 100 µM
same,TGI,A549 NSCLC,> 100 µM
same,TGI,786-0 renal,> 100 µM
same,TGI,HOP-18 NSCLC,> 100 µM
same,TGI,A498 renal,> 100 µM
same,TGI,M19-MEL melanoma,> 100 µM
same,TGI,RPMI-8226 leukemia,> 100 µM
same,TGI,OVCAR-3 ovarian,> 100 µM
same,TGI,NCI-H522 lung,> 100 µM
same,TGI,U251 CNS,> 100 µM
same,TGI,SK-OV-3 ovarian,> 100 µM
same,TGI,MOLT-4 leukemia,> 100 µM
same,TGI,KM20L2 colon,> 100 µM
same,TGI,SF-295 CNS,> 100 µM
same,TGI,DMS 114 small cell lung,98.8 µM
same,TGI,HCC-2998 colon,> 100 µM
same,TGI,RXF 393 renal,> 100 µM
same,TGI,NCI-H226 lung,> 100 µM
same,TGI,TK-10 renal,> 100 µM
same,TGI,HT29 colon,> 100 µM
same,TGI,SNB-78 CNS,> 100 µM
same,TGI,DLD-1 colon,> 100 µM
same,TGI,EKVX NSCLC,> 100 µM
same,TGI,COLO 205 colon,> 100 µM
same,TGI,UO-31 renal,> 100 µM
same,TGI,KM12 colon,> 100 µM
same,TGI,DMS 273 small cell lung,> 100 µM
same,TGI,HCT-116 colon,> 100 µM
same,TGI,SW-620 colon,> 100 µM
same,TGI,UACC-62 melanoma,> 100 µM
same,TGI,SK-MEL-2 melanoma,> 100 µM
same,TGI,HOP-62 NSCLC,> 100 µM
same,TGI,SF-539 CNS,> 100 µM
same,TGI,SNB-19 CNS,> 100 µM
same,TGI,OVCAR-8 ovarian,> 100 µM
same,TGI,HCT-15 colon,> 100 µM
same,TGI,M14 melanoma,> 100 µM
Cc1cc2c(=O)cc(-c3ccc(C(=O)O)cc3)oc2c(C(=O)O)c1C,TGI,SR leukemia,> 100 µM
same,TGI,SN12C renal,> 100 µM
same,TGI,LXFL 529 NSCLC,> 100 µM
same,TGI,RXF-631 renal,> 100 µM
same,TGI,NCI-H460 lung,> 100 µM
same,TGI,NCI-H23 lung,> 100 µM
same,TGI,ACHN renal,> 100 µM
same,TGI,IGROV1 ovarian,> 100 µM
same,TGI,OVCAR-5 ovarian,> 100 µM
same,TGI,CCRF-CEM leukemia,> 100 µM
same,TGI,SNB-75 CNS,> 100 µM
same,TGI,HL-60(TB) leukemia,> 100 µM
same,TGI,SK-MEL-5 melanoma,> 100 µM
same,TGI,MALME-3M melanoma,> 100 µM
same,TGI,LOX IMVI melanoma,> 100 µM
same,TGI,UACC-257 melanoma,> 100 µM
same,TGI,K-562 leukemia,> 100 µM
same,TGI,A549 NSCLC,> 100 µM
same,TGI,786-0 renal,> 100 µM
same,TGI,HOP-18 NSCLC,> 100 µM
same,TGI,M19-MEL melanoma,> 100 µM
same,TGI,RPMI-8226 leukemia,> 100 µM
same,TGI,OVCAR-4 ovarian,> 100 µM
same,TGI,OVCAR-3 ovarian,> 100 µM
same,TGI,NCI-H522 lung,> 100 µM
same,TGI,U251 CNS,> 100 µM
same,TGI,SK-OV-3 ovarian,> 100 µM
same,TGI,MOLT-4 leukemia,> 100 µM
same,TGI,SK-MEL-28 melanoma,> 100 µM
same,TGI,KM20L2 colon,> 100 µM
same,TGI,SF-295 CNS,> 100 µM
same,TGI,DMS 114 small cell lung,> 100 µM
same,TGI,HCC-2998 colon,> 100 µM
same,TGI,NCI-H226 lung,> 100 µM
same,TGI,TK-10 renal,> 100 µM
same,TGI,HOP-92 NSCLC,> 100 µM
same,TGI,HT29 colon,> 100 µM
same,TGI,SNB-78 CNS,> 100 µM
same,TGI,DLD-1 colon,> 100 µM
same,TGI,EKVX NSCLC,> 100 µM
same,TGI,COLO 205 colon,> 100 µM
same,TGI,UO-31 renal,> 100 µM
same,TGI,KM12 colon,> 100 µM
same,TGI,DMS 273 small cell lung,> 100 µM
same,TGI,HCT-116 colon,> 100 µM
same,TGI,SW-620 colon,> 100 µM
same,TGI,UACC-62 melanoma,> 100 µM
same,TGI,SK-MEL-2 melanoma,> 100 µM
same,TGI,HOP-62 NSCLC,> 100 µM
same,TGI,SF-539 CNS,> 100 µM
same,TGI,CAKI-1 renal,> 100 µM
same,TGI,SNB-19 CNS,> 100 µM
same,TGI,OVCAR-8 ovarian,> 100 µM
same,TGI,HCT-15 colon,> 100 µM
same,TGI,M14 melanoma,> 100 µM
